Data on 13 molecules can be found in US20250026766A1, “Thiazolopyridyl Amide Derivatives as DNA Polymerase Theta Inhibitors” (BeiGene, Ltd., priority 2022, published 2025).

Molecules are shown by their SMILES.

Chain of Pol Theta (1-894) (O75417 1-894): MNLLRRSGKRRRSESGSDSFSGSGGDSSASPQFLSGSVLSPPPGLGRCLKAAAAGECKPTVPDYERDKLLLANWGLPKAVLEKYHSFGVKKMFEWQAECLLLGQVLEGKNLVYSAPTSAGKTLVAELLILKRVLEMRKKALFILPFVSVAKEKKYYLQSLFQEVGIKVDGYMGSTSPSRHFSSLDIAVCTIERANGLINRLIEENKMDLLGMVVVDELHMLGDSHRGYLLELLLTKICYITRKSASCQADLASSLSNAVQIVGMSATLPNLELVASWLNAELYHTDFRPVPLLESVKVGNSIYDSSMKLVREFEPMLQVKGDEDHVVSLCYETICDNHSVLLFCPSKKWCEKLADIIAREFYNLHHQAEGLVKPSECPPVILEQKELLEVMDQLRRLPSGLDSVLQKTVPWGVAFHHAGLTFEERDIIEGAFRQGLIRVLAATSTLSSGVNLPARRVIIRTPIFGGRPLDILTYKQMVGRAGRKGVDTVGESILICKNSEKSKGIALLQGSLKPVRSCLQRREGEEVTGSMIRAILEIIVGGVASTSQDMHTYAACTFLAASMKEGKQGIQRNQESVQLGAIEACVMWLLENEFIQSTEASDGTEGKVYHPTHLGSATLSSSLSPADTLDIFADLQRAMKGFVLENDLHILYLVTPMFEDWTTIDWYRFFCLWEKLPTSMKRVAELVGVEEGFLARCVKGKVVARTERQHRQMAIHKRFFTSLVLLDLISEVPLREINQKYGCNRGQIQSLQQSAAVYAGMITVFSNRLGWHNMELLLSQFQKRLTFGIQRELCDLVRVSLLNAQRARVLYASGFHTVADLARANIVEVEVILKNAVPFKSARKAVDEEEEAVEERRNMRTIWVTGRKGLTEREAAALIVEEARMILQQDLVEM

The target in this test is Pol Theta (1-894) (Homo sapiens (Human), UniProt O75417). Nature of the test: Biochemical Pol Theta (1-894) ATPase IC50 assay (ADP-Glo, ssDNA substrate). As to conditions: ADP-Glo assay with ssDNA substrate, room temperature. Summed up:
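His-tagged human Pol Theta 1-894 from Sf9 baculovirus cells, 2× enzyme solution at 12.5 nM, assayed with ssDNA substrate at room temperature in 40 mM Tris pH 7.5, 20 mM MgCl2, 1 mM DTT, 0.01% BSA, 0.05% Tween-20.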
For the molecule `COc1ccccc1-c1cnncc1C(=O)Nc1nc2ccc(-c3ccc(C#N)nc3)nc2s1` [Example 144, N-(5-(6-cyanopyridin-3-yl)thiazolo[5,4-b]pyridin-2-yl)-5-(2-methoxyphenyl)pyridazine-4-carboxamide], the IC50 stood at 11 nM.
`COc1ccc(C#N)cc1-c1cc(C)ncc1C(=O)Nc1nc2ccc(-c3ccc(C(=O)N4CCC4)cc3)nc2s1` [Example 145, N-(5-(4-(azetidine-1-carbonyl)phenyl)thiazolo[5,4-b]pyridin-2-yl)-4-(5-cyano-2-methoxyphenyl)-6-methylnicotinamide] registered an IC50 of 22 nM.
Under `COc1cccc(Cl)c1-c1cc(C)ncc1C(=O)Nc1nc2ccc(-c3ccc(C#N)cc3)nc2s1` [Example 146, 4-(2-chloro-6-methoxyphenyl)-N-(5-(4-cyanophenyl)thiazolo[5,4-b]pyridin-2-yl)-6-methylnicotinamide] stands 22 nM; under `Cc1cc(-c2cc(C#N)c(=O)n(C)c2)c(C(=O)Nc2nc3ccc(-c4ccc(C#N)cc4)nc3s2)cn1` [Example 147, 5-cyano-N-(5-(4-cyanophenyl)thiazolo[5,4-b]pyridin-2-yl)-1,6′-dimethyl-6-oxo-1,6-dihydro-[3,4′-bipyridine]-3′-carboxamide], 53 nM.
Under `COc1ccccc1-c1cnncc1C(=O)Nc1nc2ccc(-c3c(C)cc(C#N)cc3C)nc2s1` [Example 148, N-(5-(4-cyano-2,6-dimethylphenyl)thiazolo[5,4-b]pyridin-2-yl)-5-(2-methoxyphenyl)pyridazine-4-carboxamide] stands 8.4 nM.
The figure for `COc1ccccc1-c1cnncc1C(=O)Nc1nc2ccc(-c3ccc(N4COCC4=O)cc3)nc2s1` [Example 149, 5-(2-methoxyphenyl)-N-(5-(4-(4-oxooxazolidin-3-yl)phenyl)thiazolo[5,4-b]pyridin-2-yl)pyridazine-4-carboxamide] is 18 nM; for `COc1ccccc1-c1cnncc1C(=O)Nc1nc2ccc(-c3c(C)cc(Cl)cc3Cl)nc2s1` [Example 150, N-(5-(2,4-dichloro-6-methylphenyl)thiazolo[5,4-b]pyridin-2-yl)-5-(2-methoxyphenyl)pyridazine-4-carboxamide] it is 43 nM; for `COc1ccc(C#N)cc1-c1cc(C)ncc1C(=O)Nc1nc2ccc(-c3ccc(C(=O)N4CCC4)c(C)c3)nc2s1` [Example 151, N-(5-(4-(azetidine-1-carbonyl)-3-methylphenyl)thiazolo[5,4-b]pyridin-2-yl)-4-(5-cyano-2-methoxyphenyl)-6-methylnicotinamide] it is 73 nM.
Regarding `COc1ccccc1-c1cnncc1C(=O)Nc1nc2ccc(Oc3ccc(C#N)cc3)nc2s1` [Example 152, N-(5-(4-cyanophenoxy)thiazolo[5,4-b]pyridin-2-yl)-5-(2-methoxyphenyl)pyridazine-4-carboxamide], half-maximal inhibition (IC50) was put at 21 nM.
In turn, `COc1cccc(C#N)c1-c1cc(C)ncc1C(=O)Nc1nc2ccc(-c3ccc(C#N)cc3)nc2s1` [Example 153, 4-(2-cyano-6-methoxyphenyl)-N-(5-(4-cyanophenyl)thiazolo[5,4-b]pyridin-2-yl)-6-methylnicotinamide] showed an IC50 of 57 nM.
`COc1cc(Cl)ccc1Oc1ccc2nc(NC(=O)c3cnncc3-c3ccccc3OC)sc2n1` [Example 154, N-(5-(4-chloro-2-methoxyphenoxy)thiazolo[5,4-b]pyridin-2-yl)-5-(2-methoxyphenyl)pyridazine-4-carboxamide] displayed an IC50 of 60 nM.
Under `COc1ccccc1-c1cnncc1C(=O)Nc1nc2ccc(Oc3ccc(Cl)cc3F)nc2s1` [Example 155, N-(5-(4-chloro-2-fluorophenoxy)thiazolo[5,4-b]pyridin-2-yl)-5-(2-methoxyphenyl)pyridazine-4-carboxamide] stands 73 nM; under `COc1ccc([N+](=O)[O-])cc1-c1ccncc1C(=O)Nc1nc2ccc(-c3ccc(C#N)cc3)nc2s1` [Example 156, N-(5-(4-cyanophenyl)thiazolo[5,4-b]pyridin-2-yl)-4-(2-methoxy-5-nitrophenyl)nicotinamide], 14 nM.
